Here are results for three compounds from patent US6395752B1, “Method of treating depression using 1-threo-methylphenidate” (Pharmaquest Limited, priority 1999, dated 2002).

SMILES strings stand for the structures. Marks after values point to notes of the source that are not given here.

A short description of series [1]: Profile of Mood State (POMS) rating scale, randomized 4-phase cross-over study, intravenous administration. The conditions noted are these: i.v.; for Vigor ratings: POMS Vigor-Activity; for Rank order of ratings for Tension, Depression and Anger: three components of Dysphoria, same order in each case. In kind it is in vivo, healthy male volunteers. The text has this: The Profile of Mood State (POMS) rating scale was used to estimate pharmacodynamic factors including Anger-Hostility, Confusion-Bewilderment, Depression-Dejection, Fatigue-Inertia, Tension-Anxiety, and Vigor-Activity. In addition composite scores were also produced for “Energy” (“Vigor-Activity” minus “Fatigue-Inertia”) and “Dysphoria” (“Anger-Hostility” plus “Depression-Rejection” plus “Tension-Anxiety”).

The conditions of series [2]: oral, cited from earlier work.
For series [3] the following is noted: plasma; i.v. 10 mg d1-MPH; 11 healthy male volunteers; mean ± SD; cited from earlier work.
The conditions of series [4]: after oral administration of the racemic drug; cited from earlier work.

On to `COC(=O)[C@H](c1ccccc1)[C@H]1CCCCN1` [d1-MPH, d1-threo-methylphenidate], for which, in series [1] (healthy male volunteers), the Vigor ratings entry was “significantly different from those for 1-MPH and placebo”; the “Effect on "Energy" composite score” value is listed as “enhanced”. For the same compound, the “Rank order of ratings for Tension, Depression and Anger” value (“Rank order of ratings for Tension” below) in series [1] was 1-MPH<placebo<d1-MPH<d-MPH. In addition, the “Hamilton depression scale decrease, subjects with minimal decrease” value in series [2] (3 subjects) is reported as less than 30%. For the same compound, in series [2] (7 subjects), the “Hamilton depression scale decrease, subjects with marked decrease” value is given as more than 55%. Also, the “Benefit in depressed patients” value in series [2] (older, medically ill depressed patients, n=16) is “statistically and clinically significant”.
For the compound `COC(=O)[C@H](c1ccccc1)[C@H]1CCCCN1` [d-MPH, d-threo-methylphenidate], in series [1] (healthy male volunteers), the Vigor ratings result is “significantly different from those for 1-MPH and placebo”; the “Effect on "Energy" composite score” value was “not strongly energizing”; the “POMS rating for Fatigue-Inertia” value is listed as “significantly different from those after 1-MPH”. For the same compound, the “Rank order of ratings for Tension” value in series [1] is on record as 1-MPH<placebo<d1-MPH<d-MPH.
With `COC(=O)[C@@H](c1ccccc1)[C@@H]1CCCCN1` [1-MPH, 2S,2′S-methyl 2-phenyl-2-(2′-piperidyl) acetate], the “Rank order of ratings for Tension” value in series [1] is given as 1-MPH<placebo<d1-MPH<d-MPH. Besides, the t1/2 in series [3] was 3.61 ± 1.12^b. The “Absolute bioavailability (F)” value in series [4] is 0.05.
